Residue numbers refer to the chain shown, from its start. Like-named read-outs stand apart in the source and are kept apart here.
Tests used:
MTHFD2 [1] = biological target: T1, MTHFD2 (Homo sapiens, UniProt P13995); assay: Enzyme kinetics of recombinant MTHFD2 in the modified 384 well assay; type: biochemical; conditions: recombinant MTHFD2, 384 well plate format; read-out: Km, Measured
T1 construct: 12 amino acids were removed from the unstructured C-terminus of the protein, and a 6-histidine tag added to facilitate purification; 6-histidine tag (C); made in house; host or cells: E. coli One Shot BL21 Star (DE3), pET-30a(+)
T1 sequence (P13995 with tags, fused parts or gaps): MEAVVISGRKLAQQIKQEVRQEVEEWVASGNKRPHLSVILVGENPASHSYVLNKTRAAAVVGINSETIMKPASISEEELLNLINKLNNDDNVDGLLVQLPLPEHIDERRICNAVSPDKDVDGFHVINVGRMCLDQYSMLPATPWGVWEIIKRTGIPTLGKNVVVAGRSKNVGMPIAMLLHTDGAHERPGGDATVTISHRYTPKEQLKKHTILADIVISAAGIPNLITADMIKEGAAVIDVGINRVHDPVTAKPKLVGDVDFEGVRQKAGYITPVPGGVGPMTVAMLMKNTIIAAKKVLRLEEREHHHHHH
Description: (§1) The NAD-dependent methylenetetrahydrofolate dehydrogenase/cyclohydrolase activity assay employed in this microtiter well based screen is based on previously published enzymatic assays, with modifications as listed below. The assay was initially reported by Scrimgeour and Huennekens, Biochem. Biophys. Res. Commun. 1960, 2:230-233 and subsequently by Mejia and MacKenzie, The Journal of biological chemistry. 1985; 260:14616-14620). The assay was performed as described with slight modifications (reported assay concentrations in the Mejia et al. assay are provided in brackets below). The modified assay utilized 50 ng of recombinant MTHFD2 protein produced as described in Example 11 per well in 384 well format. In addition, the present assay utilized 30 […], at pH 7.5 (7.3), with 150 uM formaldehyde (2.5 mM), 150 uM tetrahydrofolate (250 uM) and 6 mM MgCl (5 mM). No 2-mercaptoethanol or reducing agents were used in the present assay, which is crucial for detection of cysteine modifying compounds as potential enzyme inhibitors. The assay employed for high-throughput screening for chemical inhibitors used the final endpoint measure of formation of 5,10-methenyltetrahydrofolate by spectrophotometric absorbance at 340 nm.

MTHFD2 [2] = biological target: T1, MTHFD2; conditions: published values (Yang and MacKenzie 1993); cited from earlier work
NCI-60 cancer cell lines = assay: Association between glycine consumption and compound sensitivity (GI50) across the 60 cell lines; type: cell-based, human; conditions: NCI public data, FIG. 3
Excerpt: Compound sensitivity data for glutathione biosynthesis and de novo purine biosynthesis inhibitors was obtained from the NCI data repository (October 2009 release). Compound sensitivity was quantified using the GI50 measure (Shoemaker, Nat Rev Cancer. 2006; 6:813-823), defined as the compound concentration inhibiting cell growth by 50%. For those compounds in which multiple experiments with different concentration ranges were available, the experiment with the least degree of saturation was used.
Given the observation that glycine consumption is correlated to rapid cancer cell proliferation (see Examples 1-5, above), the present inventors sought to determine whether glycine consumption predicts sensitivity to particular chemotherapeutic agents. The association between glycine update and sensitivity to 3851 annotated small molecules (data provided to the public by NCI) was examined bioinformatically across the 60 cell lines.

[3] = biological target: T2, recombinant MTHFD2 protein (human, wild type) (Homo sapiens, UniProt P13995); assay: NAD-dependent methylenetetrahydrofolate dehydrogenase/cyclohydrolase activity assay, 384 well, no reducing agents; type: biochemical; conditions: for inhibition of MTHFD2 enzyme in high throughput screen: screen of about 5,100 small molecules, biological duplicate, no reducing agents
T2 construct: 12 amino acids were removed from the unstructured C-terminus of the protein, and a 6-histidine tag added to facilitate purification; 6-histidine tag (C); made in house; host or cells: E. coli One Shot BL21 Star (DE3), pET-30a(+)
T2 sequence (P13995 with tags, fused parts or gaps): T1 sequence (P13995 with tags, fused parts or gaps)
Description: as §1
The assay described in Example 12 was used to screen a library of about 5,100 small molecule agents in the Prestwick chemical library, Known Bioactives Library and Library of Pharmacologically Active Compounds, in biological duplicate. […] Several of the high scoring inhibitors are known cysteine modifiers that could in principle inhibit enzyme activity by modification of cysteine residues.
Three mutant MTHFD2 constructs were generated with Agilent QuikChange Lightening, with cysteine to serine mutations at C145, C166 or both C145/C166. These mutants were retested with three of the compounds identified in the secondary screen (6-hydroxy-DL-DOPA, Celastrol, and Ebselen). […] Given the identification of these cysteine residues, additional structure/medicinal chemistry may be employed to specifically design small molecules that take advantage of these cysteine residues and inhibit MTHFD2 with greater selectivity.

MTHFD2 C145S mutant = biological target: T3, MTHFD2 C145S mutant (Homo sapiens, UniProt P13995, C145S); assay: Same activity assay on MTHFD2 C145 cysteine to serine mutant; type: biochemical
T3 construct: 12 amino acids were removed from the unstructured C-terminus of the protein, and a 6-histidine tag added to facilitate purification; 6-histidine tag (C); made in house
T3 sequence (P13995 with tags, fused parts or gaps C145S): T1 sequence (P13995 with tags, fused parts or gaps) with C111S
Description: as §1, with “nm. […]” for “nm.”

MTHFD2 C166S mutant = biological target: T4, MTHFD2 C166S mutant (Homo sapiens, UniProt P13995, C166S); assay: Same activity assay on MTHFD2 C166 cysteine to serine mutant; type: biochemical
T4 construct: 12 amino acids were removed from the unstructured C-terminus of the protein, and a 6-histidine tag added to facilitate purification; 6-histidine tag (C); made in house
T4 sequence (P13995 with tags, fused parts or gaps C166S): T1 sequence (P13995 with tags, fused parts or gaps) with C132S
Description: as §1, with “nm. […]” for “nm.”

[4] = biological target: T5, MTHFD2 C145S/C166S mutant (Homo sapiens, UniProt P13995, C145S/C166S); assay: Same activity assay on MTHFD2 C145/C166 double mutant; type: biochemical
T5 construct: 12 amino acids were removed from the unstructured C-terminus of the protein, and a 6-histidine tag added to facilitate purification; 6-histidine tag (C); made in house
T5 sequence (P13995 with tags, fused parts or gaps C145S/C166S): T1 sequence (P13995 with tags, fused parts or gaps) with C111S, C132S
Description: as §1, with “nm. […]” for “nm.”

LOX IMVI cells = assay: Rescue of SHMT2-silenced LOX IMVI cells grown in the absence of glycine; type: cell-based, human; conditions: supplement 140 μM
Description: (§2) For lentiviral infection, 100,000 cells were seeded in a 6-well dish in 2 mL medium containing 8 μg/ml Polybrene and 100 μl viral supernatant added. Plates were centrifuged at 800×g for 30 minutes at 37° C., and the medium replaced. Twenty-four hours later, cells were selected for infection by the addition of 2 μg/ml puromycin. […] Cells were passaged for >10 cell divisions to ensure stable expression of the shRNA construct. For assessment of SHMT2 knockdown, mRNA was isolated from cells using RNeasy kit (Qiagen), and qRT-PCR was performed for SHMT2 and HPRT1 using the Taqman assay (Applied Biosystems assay ID Hs00193658_m1* and Hs01003267_m1*, respectively), according to manufacturer's instructions. For experiments using A498 and LOX IMVI, cells were infected with either sh1-4 or shCtrl lentivirus and stable expressing cells selected as above. For experiments utilizing NCI-H226, HS-578T, TK10, EKVX, OVCAR-8, U251, A549, HT29, NCI-460 and HCT-116, cells were infected with either sh4 or shCtrl lentivirus and stable expressing cells selected as above. […] For all experiments, cells were counted and cell counts expressed as fold change over time. […] Cells were counted at regular time intervals as described above. All experiments were performed using at least 10 independent cell cultures.

[5] = test system: 10 additional primary cancer cell lines from the NCI-60 panel; conditions: FIG. 1G
Description: as §2

Compound: Nc1nc2c(c(=O)[nH]1)N1CN(c3ccc(C(=O)N[C@@H](CCC(=O)O)C(=O)O)cc3)CC1CN2 (some centres unmarked) [5,10 CH2—THF]
- Km (MTHFD2 [1]): 4.1 µM
- Km (MTHFD2 [2]): 6.7 µM

Compound: O=c1[nH]cc(F)c(=O)[nH]1 [5-fluorouracil]
- sensitivity of glycine consuming cells to the agent (correlation of glycine consumption with sensitivity) (NCI-60 cancer cell lines): not more sensitive

Compound: NC(Cc1cc(O)c(O)cc1O)C(=O)O (stereo not drawn) [6-hydroxy-DL DOPA]
- inhibition of wild type MTHFD2 with addition of the reducing agent DTT ([3]; plus DTT): not antagonized
- inhibition of wild type MTHFD2 ([3]; retest with mutants, FIGS. 9A-C): inhibited
- inhibition of MTHFD2 enzyme in high throughput screen [3]: inhibit the enzyme
- inhibition of C145 mutant MTHFD2 (MTHFD2 C145S mutant): inhibited
- inhibition of C166 mutant MTHFD2 (MTHFD2 C166S mutant): inhibited
- inhibition of C145/C166 double mutant MTHFD2 [4]: inhibited

Compound: O=C1Nc2ccc(I)cc2/C1=C/c1cc(Br)c(O)c(Br)c1 [GW5074]
- inhibition of MTHFD2 enzyme in high throughput screen [3]: inhibit the enzyme

Compound: NC(=O)c1ccc[n+]([C@@H]2O[C@H](COP(=O)([O-])OP(=O)(O)OC[C@H]3O[C@@H](n4cnc5c(N)ncnc54)[C@H](O)[C@@H]3O)[C@@H](O)[C@H]2O)c1 [NAD+]
- Km (MTHFD2 [1]): 51.5 µM
- Km (MTHFD2 [2]): 56.4 µM

Compound: Clc1ccc(C(c2ccc(Cl)cc2)n2cc[n+](CC(OCc3ccc(Cl)cc3Cl)c3ccc(Cl)cc3Cl)c2)cc1 (centres unmarked) [calmidazolium chloride]
- inhibition of MTHFD2 enzyme in high throughput screen [3]: inhibit the enzyme

Compound: O=CO [formate]
- rescue of proliferation of SHMT2-silenced LOX IMVI cells (LOX IMVI cells): failed to rescue

Compound: NCC(=O)O [glycine]
- rescue of proliferation of SHMT2-silenced LOX IMVI cells (LOX IMVI cells): rescued
- rescue by addition of extracellular glycine in rapidly proliferating SHMT2-silenced cancer cells [5]: rescued

Compound: NC(=O)CI [iodoacetamide]
- inhibition of MTHFD2 enzyme in high throughput screen [3]: inhibit the enzyme

Compound: CN(Cc1cnc2nc(N)nc(N)c2n1)c1ccc(C(=O)N[C@@H](CCC(=O)O)C(=O)O)cc1 [methotrexate, Glutamic acid, N-[p-[[(2,4-diamino-6-pteridinyl)methyl]methylamino]benzoyl]-, L-(+)-(8CI)]
- sensitivity of glycine consuming cells to the agent (correlation of glycine consumption with sensitivity) (NCI-60 cancer cell lines): uniquely sensitive

Compound: O=C1C=CC(=O)C=C1 [para-benzoquinone]
- inhibition of MTHFD2 enzyme in high throughput screen [3]: inhibit the enzyme

Compound: C=CC1=C(C)c2cc3[nH]c(cc4nc(cc5[nH]c(cc1n2)c(C)c5CCC(=O)O)C(CCC(=O)O)=C4C)c(C)c3C=C [protoporphyrin IX disodium]
- inhibition of MTHFD2 enzyme in high throughput screen [3]: inhibit the enzyme

Reference: US20160032401A1, “Glycine, Mitochondrial One-Carbon Metabolism, and Cancer” (THE GENERAL HOSPITAL CORPORATION, priority 2013, published 2016)
